Laboratory results taken from article PMC9782510, “Natural Antioxidants, Tyrosinase and Acetylcholinesterase Inhibitors from Cercis glabra Leaves” (Molecules, 2022).

Experiments:
[1] = test system: mushroom tyrosinase; assay: Mushroom tyrosinase inhibitory activity (L-tyrosine substrate); assay type: biochemical; settings: for Tyrosinase Inhibition (%): at initial concentration of 1 mg/mL, means ± SEMs; for IC50: read-out: Tyrosinase inhibition IC50
Description: Mushroom tyrosinase (400 U/mL) and L-tyrosine (3 mM) were added separately in 0.05 M potassium phosphate buffer (pH 6.5). A total of 80 µL of potassium phosphate buffer (pH 6.5), 80 µL of L-tyrosine (3 mM) solution, 20 µL of sample solution and 20 µL of mushroom tyrosinase (400 U/mL) were added to a 96-well microplate. The mixture reacted for 1 h at 37 °C. […] The absorbance was measured at 490 nm using a microplate reader and Equation (3) was used to calculate the inhibition rate. (3) Tyrosinase inhibition activity (%) =AC–AS/AC×100
Equation (3) is the absorbance of the test compound and AC is the absorbance of the untreated control.

[2] = molecular target: Acetylcholinesterase (AChE) (Electrophorus electricus, UniProt O42275); assay: Acetylcholinesterase inhibitory activity (ATCI/DTNB); assay type: biochemical; settings: for inhibition at 1000 µg/mL: read-out: Acetylcholinesterase Inhibition (%)
Description: The experiment of acetylcholinesterase inhibition activity was slightly modified according to the literature [55]. Acetylcholinesterase (AChE) and acetylthiocholine iodide (ATCI) were dissolved in 0.1 M phosphate buffer (pH 8.0). 5,5′-Dithiobis-(2-nitrobenzoic acid) (DTNB) was prepared in 10 mL of 0.1 M phosphate buffer (pH 7.0) with a small amount of NaHCO3. A total of 120 µL of 0.1 M phosphate buffer (pH 8.0), 20 µL of 3 mM DTNB solution, 20 µL of sample solution and 20 µL of AChE (0.2 U/mL) were sequentially added to the 96-well microplate, and the mixture reacted for 10 min at 37 °C. The reaction was started by adding 20 µL of 3 mM ATCI and the mixture was incubated at 37 °C for 20 min. Donepezil was chosen as the positive control. […] (4) Acetylcholinesterase inhibition activity (%) =[1−(AS–Aj)/AC]×100 where As and Aj are the absorbance of the compound to be tested and tested compound blanks, respectively, and AC is the absorbance of the untreated control.

[3] = PTIO radical scavenging assay
Description: The PTIO radical scavenging activity was assayed by referring to relevant methods. Briefly, PTIO radical solid (3 mg) was dissolved in 20 mL of methanol, and sample solution and PTIO methanol solution (40 µL:160 µL) were added to a 96-well microplate. The absorbance was determined at 585 nm using a microplate reader after 30 min of incubation and the scavenging rate was calculated on the basis of Equation (2). (2) PTIO radical scavenging activity (%) =[1−AS/AC]×100 where AS is the absorbance of the compounds to be tested and AC is the absorbance of the untreated control.

[4] = ABTS radical scavenging assay
Description: The ABTS radical scavenging assay was modified according to the method with slight modifications. Briefly, the ABTS radical cation was obtained by mixing ABTS diammonium salt stock solution (7.4 mM) with potassium persulfate (2.6 mM) in equal proportion and reacting it at 37 °C in darkness for 12–16 h. Before used, the absorbance of light green ABTS radical test solution at 745 nm was controlled to be 0.70 ± 0.02 by diluting with methanol. Sample solution and ABTS methanol solution (10 µL:190 µL) were added to 96-well microplate, and L-ascorbic acid was the positive control. After incubation at 37 °C for 10 min, the absorbance was tested at 745 nm using a microplate reader. Scavenging rate was calculated according to Equation (1). (1) ABTS radical scavenging activity (%) =AC–AS/AC×100 where AC and AS are the absorbance of the blank control and the compounds to be tested, respectively.

[5] = DPPH radical scavenging assay
Description: The scavenging ability on DPPH radical was conducted based on the method with some modifications. The sample solution and DPPH methanol solution (20 µL:180 µL) were added to a 96-well microplate. L-ascorbic acid was the positive control. The absorbance at 517 nm was measured using a microplate reader after the solution had stood for 30 min at 37 °C under dark conditions. The calculation formula of DPPH radical scavenging activity is consistent with the formula of ABTS radical scavenging activity.

Acetylcholinesterase (AChE), sequence (O42275 24-633): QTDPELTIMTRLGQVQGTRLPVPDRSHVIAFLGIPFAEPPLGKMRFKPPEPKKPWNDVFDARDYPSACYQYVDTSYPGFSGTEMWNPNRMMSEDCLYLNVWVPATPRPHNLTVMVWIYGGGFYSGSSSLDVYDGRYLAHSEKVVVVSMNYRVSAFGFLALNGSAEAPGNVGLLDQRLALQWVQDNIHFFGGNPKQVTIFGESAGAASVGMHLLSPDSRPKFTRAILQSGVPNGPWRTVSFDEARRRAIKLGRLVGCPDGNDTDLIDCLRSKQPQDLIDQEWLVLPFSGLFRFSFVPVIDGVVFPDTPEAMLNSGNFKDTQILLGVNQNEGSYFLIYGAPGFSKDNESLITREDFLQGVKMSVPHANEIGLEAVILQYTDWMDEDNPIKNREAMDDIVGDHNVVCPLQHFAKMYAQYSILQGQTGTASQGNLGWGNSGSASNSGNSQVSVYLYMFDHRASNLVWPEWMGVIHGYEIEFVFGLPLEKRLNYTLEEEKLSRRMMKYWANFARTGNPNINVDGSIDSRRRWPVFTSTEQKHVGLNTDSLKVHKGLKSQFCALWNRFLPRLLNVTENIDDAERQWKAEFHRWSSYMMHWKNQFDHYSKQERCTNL

Which results are given for `COC(=O)[C@@H](O)[C@H](OC(=O)/C=C/c1ccc(O)cc1)C(=O)OC` [Compound 1, (2′S, 3′S)-trans-4-coumaroyltartaric acid dimethyl ester]?
Tyrosinase Inhibition (%) [1]: 53.13 ± 0.65%; IC50 [1]: 2630 µM; inhibition at 1000 µg/mL [2]: 38.43 ± 0.2%; IC50 [3]: > 100000 µM; IC50 [4]: > 500 µM; IC50 [5]: > 100000 µM

With `COC(=O)[C@H](O)[C@@H](OC(=O)/C=C/c1ccc(O)cc1)C(=O)O` [Compound 2, (2′R, 3′R)-trans-4-coumaroyl-4′-methoxyl-tartaric acid] as the compound, how does the “Tyrosinase Inhibition (%)” value [1] read?
The value was 53.54 ± 0.90%.

And the IC50 [1]?
Its IC50 is 2590 µM.

And the inhibition at 1000 µg/mL [2]?
The inhibition at 1000 µg/mL was 39.46 ± 0.25%.

What about the IC50 [3] of the same compound?
The IC50 was greater than 100000 µM.

What about the IC50 [4] of the same compound?
Its IC50 is greater than 500 µM.

And the IC50 [5]?
The IC50 was greater than 100000 µM.

Which results are given for `O=c1c(O)c(-c2cc(O)c(O)c(O)c2)oc2cc(O)cc(O)c12` [Compound 3, myricetin]?
Tyrosinase Inhibition (%) [1]: 60.00 ± 1.49%; IC50 [1]: 1390 µM; inhibition at 1000 µg/mL [2]: 85.27 ± 0.06%; IC50 [3]: 2560 µM; IC50 [4]: 94 µM; IC50 [5]: 870 µM

With `COc1cc(-c2oc3cc(O)cc(O)c3c(=O)c2O)ccc1O` [Compound 4, isorhamnetin] as the compound, how does the “Tyrosinase Inhibition (%)” value [1] read?
The value was 44.17 ± 0.85%.

And the IC50 [1]?
Its IC50 is 4690 µM.

What about the inhibition at 1000 µg/mL [2] of the same compound?
Its inhibition at 1000 µg/mL is 68.13 ± 0.24%.

What about the IC50 [3] of the same compound?
The IC50 was 44300 µM.

And the IC50 [4]?
The IC50 was greater than 500 µM.

And the IC50 [5]?
The IC50 was 6250 µM.

Which “Tyrosinase Inhibition (%)” value [1] does the source give for `O=c1c(O)c(-c2ccc(O)c(O)c2)oc2cc(O)cc(O)c12` [Compound 5, quercetin] here?
The value was 77.29 ± 1.52%.

And the inhibition at 1000 µg/mL [2]?
Its inhibition at 1000 µg/mL is 83.65 ± 0.48%.

What about the IC50 [3] of the same compound?
Its IC50 is 6360 µM.

What about the IC50 [4] of the same compound?
Its IC50 is 97 µM.

And the IC50 [5]?
Its IC50 is 590 µM.

What does the source list for `O=c1c(O)c(-c2ccc(O)cc2)oc2cc(O)cc(O)c12` [Compound 6, kaempferol]?
Tyrosinase Inhibition (%) [1]: 57.50 ± 0.82%; IC50 [1]: 1690 µM; inhibition at 1000 µg/mL [2]: 82.21 ± 0.09%; IC50 [3]: 14700 µM; IC50 [4]: 108 µM; IC50 [5]: 590 µM

What does the source list for `C[C@@H]1O[C@@H](Oc2c(-c3ccc(O)cc3)oc3cc(O)cc(O)c3c2=O)[C@H](O)[C@H](O)[C@H]1O` [Compound 7, afzelin]?
Tyrosinase Inhibition (%) [1]: 32.71 ± 1.51%; IC50 [1]: 9240 µM; IC50 [3]: > 100000 µM; IC50 [4]: > 500 µM; IC50 [5]: > 100000 µM

For `C[C@@H]1O[C@@H](Oc2c(-c3ccc(O)c(O)c3)oc3cc(O)cc(O)c3c2=O)[C@H](O)[C@H](O)[C@H]1O` [Compound 8, quercitrin], which “Tyrosinase Inhibition (%)” value [1] is on record?
Its value is 39.17 ± 0.86%.

And the IC50 [1]?
Its IC50 is 4960 µM.

And the inhibition at 1000 µg/mL [2]?
The inhibition at 1000 µg/mL was 40.11 ± 0.31%.

And the IC50 [3]?
Its IC50 is greater than 100000 µM.

What about the IC50 [4] of the same compound?
The IC50 was greater than 500 µM.

What about the IC50 [5] of the same compound?
The IC50 was 6560 µM.

Which “Tyrosinase Inhibition (%)” value [1] does the source give for `C[C@@H]1O[C@@H](Oc2c(-c3cc(O)c(O)c(O)c3)oc3cc(Oc4cc(O)c5c(=O)c(O[C@@H]6O[C@@H](C)[C@H](O)[C@@H](O)[C@H]6O)c(-c6cc(O)c(O)c(O)c6)oc5c4)cc(O)c3c2=O)[C@H](O)[C@H](O)[C@H]1O` [Compound 10, myricetin-3-O-rhamnoside-(C7-I-O-C7-II)-myricetin-3-O-rhamnoside] here?
The value was 66.04 ± 0.62%.

What about the IC50 [1] of the same compound?
The IC50 was 650 µM.

What about the inhibition at 1000 µg/mL [2] of the same compound?
The inhibition at 1000 µg/mL was 61.3 ± 0.38%.

And the IC50 [3]?
The IC50 was 530 µM.

And the IC50 [4]?
Its IC50 is 45 µM.

And the IC50 [5]?
Its IC50 is 560 µM.

For `CC[C@H](CC[C@@H](C)[C@H]1CC[C@H]2[C@@H]3CC=C4C[C@@H](O[C@@H]5O[C@H](CO)[C@@H](O)[C@H](O)[C@H]5O)CC[C@]4(C)[C@H]3CC[C@]12C)C(C)C` [Compound 11], which “Tyrosinase Inhibition (%)” value [1] is on record?
The value was 29.79 ± 0.88%.

What about the IC50 [1] of the same compound?
Its IC50 is 8840 µM.

And the inhibition at 1000 µg/mL [2]?
Its inhibition at 1000 µg/mL is 40.8 ± 0.41%.

And the IC50 [3]?
Its IC50 is greater than 100000 µM.

What about the IC50 [4] of the same compound?
The IC50 was greater than 500 µM.

What about the IC50 [5] of the same compound?
The IC50 was greater than 100000 µM.

For `CC(=O)CCc1ccc(O[C@@H]2O[C@H](CO)[C@@H](O)[C@H](O)[C@H]2O)cc1` [Compound 12, 4-(4′-Hydroxyphenyl)-2-butanone-4′-O-β-D-glucopyranoside], which “Tyrosinase Inhibition (%)” value [1] is on record?
The value was 35.63 ± 1.01%.

And the IC50 [1]?
Its IC50 is 7470 µM.

And the inhibition at 1000 µg/mL [2]?
The inhibition at 1000 µg/mL was 39.8 ± 0.53%.

What about the IC50 [3] of the same compound?
The IC50 was greater than 100000 µM.

What about the IC50 [4] of the same compound?
Its IC50 is greater than 500 µM.

What about the IC50 [5] of the same compound?
The IC50 was 34900 µM.

Which results are given for `O=C(O)c1cc(O)c(O)c(O)c1` [Compound 13, gallic acid]?
Tyrosinase Inhibition (%) [1]: 80.00 ± 0.78%; IC50 [1]: 590 µM; inhibition at 1000 µg/mL [2]: 71.74 ± 0.4%; IC50 [3]: > 100000 µM; IC50 [4]: 179 µM; IC50 [5]: 770 µM

For `COC(=O)C[C@H]1CCC(=O)[C@H]1C/C=C\CCO[C@@H]1O[C@H](CO)[C@@H](O)[C@H](O)[C@H]1O` [Compound 14, methyl-β-D-glucopyranosyl tuberonate], which “Tyrosinase Inhibition (%)” value [1] is on record?
Its value is 37.71 ± 0.56%.

What about the inhibition at 1000 µg/mL [2] of the same compound?
Its inhibition at 1000 µg/mL is 47.18 ± 0.16%.

And the IC50 [3]?
Its IC50 is greater than 100000 µM.

What about the IC50 [4] of the same compound?
The IC50 was greater than 500 µM.

What about the IC50 [5] of the same compound?
Its IC50 is greater than 100000 µM.

What does the source list for `O=C1c2c(O[C@@H]3O[C@H](CO)[C@@H](O)[C@H](O)[C@H]3O)cc(O)cc2OC1(O)Cc1ccc(O)cc1` (stereo partly drawn) [Compound 15, hovetrichoside C]?
Tyrosinase Inhibition (%) [1]: 42.08 ± 0.54%; IC50 [1]: 4040 µM; inhibition at 1000 µg/mL [2]: 39.91 ± 0.36%; IC50 [3]: > 100000 µM; IC50 [4]: > 500 µM; IC50 [5]: > 100000 µM

What does the source list for `O=C1O[C@H]([C@@H](O)CO)C(O)=C1O` [L-ascorbic acid, reference compound]?
IC50 [3]: 1610 µM; IC50 [4]: 156 µM; IC50 [5]: 440 µM

Which results are given for kaempferol-3-O-rutinoside [Compound 9]?
Tyrosinase Inhibition (%) [1]: 23.54 ± 1.04%; Acetylcholinesterase Inhibition (%) ([2]; at initial concentration of 1 mg/mL, means ± SEMs): 39.90 ± 0.33%; IC50 ([2]; read-out: Acetylcholinesterase inhibition IC50): > 1000 µM; IC50 [3]: 27600 µM; IC50 [4]: > 500 µM; IC50 [5]: > 100000 µM
